According to paper PMC8286840, “Identifying SARS-CoV-2 antiviral compounds by screening for small molecule inhibitors of Nsp3 papain-like protease” (Biochemical Journal, 2021):
Where a name gives a salt, the structure may show the parent alone. Read-outs that look alike come from different tables or passages of the source.

Legend:
[1] = target: T1, SARS-CoV-2 PLpro (nsp3 1564–1878) (Severe acute respiratory syndrome coronavirus 2, UniProt P0DTD1); assay: biochemical; parameters: FRET-quenched peptide (Pro3) cleavage by PLpro, 10 min pre-incubation, slope over 20 min, normalised to no-compound control; conditions: low concentration screen, read-out: % of control remaining
[2] = target: T1, SARS-CoV-2 PLpro (nsp3 1564–1878); assay: biochemical; parameters: FRET-quenched peptide (Pro3) cleavage by PLpro, 10 min pre-incubation, slope over 20 min, normalised to no-compound control; conditions: high concentration screen, read-out: % of control remaining

Compound: CCNC(=O)CCC/C=C\C[C@@H]1[C@@H](/C=C/[C@@H](O)CCc2ccccc2)[C@H](O)C[C@@H]1O [Bimatoprost]
- remaining activity at 1.25 µM ([1]; Well no.=5237): 100%
- remaining activity at 3.75 µM ([2]; Well no.=5237): 101%

Compound: COc1ccc(-c2coc3cc(O)cc(O)c3c2=O)cc1 [Biochanin A]
- remaining activity at 1.25 µM ([1]; Well no.=3519): 103%
- remaining activity at 3.75 µM ([2]; Well no.=3519): 101%

Compound: O=C(O)CCCC[C@@H]1SC[C@@H]2NC(=O)N[C@@H]21 [Biotin (Vitamin B7)]
- remaining activity at 1.25 µM ([1]; Well no.=5359): 98.1%
- remaining activity at 3.75 µM ([2]; Well no.=5359): 95.3%

Compound: N=C1S/C(=C\c2ccc(-c3ccc4c(c3)C(=O)NC4=O)o2)C(=O)N1c1ccc(Br)cc1 [Bioymifi]
- remaining activity at 1.25 µM ([1]; Well no.=6390): 96.5%
- remaining activity at 3.75 µM ([2]; Well no.=6390): 98%

Compound: OC(CCN1CCCCC1)(c1ccccc1)C1C[C@@H]2C=C[C@H]1C2 (stereo partly shown) [Biperiden (Hydrochloride)]
- remaining activity at 1.25 µM ([1]; Well no.=7434): 97.8%
- remaining activity at 3.75 µM ([2]; Well no.=7434): 100%

Compound: CC[C@H](NC(=O)[C@H](C)NC)C(=O)N1C[C@@H](O)C[C@H]1Cc1c(-c2[nH]c3cc(F)ccc3c2C[C@@H]2C[C@H](O)CN2C(=O)[C@H](CC)NC(=O)[C@H](C)NC)[nH]c2cc(F)ccc12 [Birinapant]
- remaining activity at 1.25 µM ([1]; Well no.=6542): 95%
- remaining activity at 3.75 µM ([2]; Well no.=6542): 75.1%

Compound: O=C(/C=C/c1ccc(O)cc1)CC(=O)/C=C/c1ccc(O)cc1 [Bis demethoxycurcumin]
- remaining activity at 1.25 µM ([1]; Well no.=3466): 102%
- remaining activity at 3.75 µM ([2]; Well no.=3466): 103%

Compound: CC(=O)Oc1ccc(C(c2ccc(OC(C)=O)cc2)c2ccccn2)cc1 [Bisacodyl]
- remaining activity at 1.25 µM ([1]; Well no.=2175): 105%
- remaining activity at 3.75 µM ([2]; Well no.=2175): 102%

Compound: O=C(/C=C/c1ccc(O)cc1)CC(=O)/C=C/c1ccc(O)cc1 [Bisdemethoxycurcumin]
- remaining activity at 1.25 µM ([1]; Well no.=6536): 97.5%
- remaining activity at 3.75 µM ([2]; Well no.=6536): 92.4%

Compound: O=C1NC(=O)C(c2c[nH]c3ccccc23)=C1c1c[nH]c2ccccc12 [Bisindolylmaleimide IV]
- remaining activity at 1.25 µM ([1]; Well no.=2355): 101%
- remaining activity at 3.75 µM ([2]; Well no.=2355): 99.7%

Compound: CN(C)CCCn1cc(C2=C(c3c[nH]c4ccccc34)C(=O)NC2=O)c2ccccc21 [Bisindolylmaleimide I]
- remaining activity at 1.25 µM ([1]; Well no.=2325): 97.2%
- remaining activity at 3.75 µM ([2]; Well no.=2325): 98.8%

Compound: CN1C(=O)C(c2c[nH]c3ccccc23)=C(c2c[nH]c3ccccc23)C1=O [Bisindolylmaleimide V]
- remaining activity at 1.25 µM ([1]; Well no.=2339): 92.9%
- remaining activity at 3.75 µM ([2]; Well no.=2339): 91.1%

Compound: CC(C)NCC(O)COc1ccc(COCCOC(C)C)cc1 (stereo not shown) [Bisoprolol]
- remaining activity at 1.25 µM ([1]; Well no.=5109): 96.8%
- remaining activity at 3.75 µM ([2]; Well no.=5109): 98.6%

Compound: Cc1c(N)nc([C@H](CC(N)=O)NC[C@H](N)C(N)=O)nc1C(=O)N[C@H](C(=O)N[C@H](C)[C@@H](O)[C@H](C)C(=O)N[C@H](C(=O)NCCc1nc(-c2nc(C(=O)NCCC[S+](C)C)cs2)cs1)[C@@H](C)O)[C@@H](O[C@@H]1O[C@@H](CO)[C@@H](O)[C@H](O)[C@@H]1O[C@H]1O[C@H](CO)[C@@H](O)[C@H](OC(N)=O)[C@@H]1O)c1cnc[nH]1 [Bleomycin sulfate]
- remaining activity at 1.25 µM ([1]; Well no.=3558): 107%
- remaining activity at 3.75 µM ([2]; Well no.=3558): 107%

Compound: Cc1c(N)nc([C@H](CC(N)=O)NC[C@H](N)C(N)=O)nc1C(=O)N[C@H](C(=O)N[C@H](C)[C@@H](O)[C@H](C)C(=O)N[C@H](C(=O)NCCc1nc(-c2nc(C(=O)NCCC[S+](C)C)cs2)cs1)[C@@H](C)O)[C@@H](OC1OC(CO)C(O)C(O)C1OC1OC(CO)C(O)C(OC(N)=O)C1O)c1cnc[nH]1 (stereo partly shown) [Bleomycin]
- remaining activity at 1.25 µM ([1]; Well no.=1890): 89.5%
- remaining activity at 3.75 µM ([2]; Well no.=1890): 91.9%

Compound: COc1cc2c(cc1O)C[C@H]1c3c(cc(O)c(OC)c3-2)CCN1C [Boldine]
- remaining activity at 1.25 µM ([1]; Well no.=3166): 102%
- remaining activity at 3.75 µM ([2]; Well no.=3166): 101%

Compound: Cc1cc2c(OCC(CNC(C)(C)C)OC(=O)c3ccccc3)cccc2[nH]1 (stereo not shown) [Bopindolol]
- remaining activity at 1.25 µM ([1]; Well no.=1892): 96.2%
- remaining activity at 3.75 µM ([2]; Well no.=1892): 97.2%

Compound: CC(C)C[C@H](NC(=O)[C@H](Cc1ccccc1)NC(=O)c1cnccn1)B(O)O [Bortezomib]
- remaining activity at 1.25 µM ([1]; Well no.=1768): 99.9%
- remaining activity at 1.25 µM ([1]; Well no.=6302): 98.1%
- remaining activity at 3.75 µM ([2]; Well no.=1768): 101%

Compound: COc1ccccc1Oc1c(NS(=O)(=O)c2ccc(C(C)(C)C)cc2)nc(-c2ncccn2)nc1OCCO [Bosentan (hydrate)]
- remaining activity at 1.25 µM ([1]; Well no.=6461): 102%
- remaining activity at 3.75 µM ([2]; Well no.=6461): 101%

Compound: COc1ccccc1Oc1c(NS(=O)(=O)c2ccc(C(C)(C)C)cc2)nc(-c2ncccn2)nc1OCCO [Bosentan Hydrate]
- remaining activity at 1.25 µM ([1]; Well no.=5273): 97.9%
- remaining activity at 3.75 µM ([2]; Well no.=5273): 95.6%

Compound: COc1ccccc1Oc1c(NS(=O)(=O)c2ccc(C(C)(C)C)cc2)nc(-c2ncccn2)nc1OCCO [Bosentan]
- remaining activity at 1.25 µM ([1]; Well no.=2246): 93.3%
- remaining activity at 1.25 µM ([1]; Well no.=7575): 98.7%
- remaining activity at 3.75 µM ([2]; Well no.=2246): 95%
- remaining activity at 3.75 µM ([2]; Well no.=7575): 96.3%

Compound: COc1cc(Nc2c(C#N)cnc3cc(OCCCN4CCN(C)CC4)c(OC)cc23)c(Cl)cc1Cl [Bosutinib]
- remaining activity at 1.25 µM ([1]; Well no.=2883): 97.8%
- remaining activity at 3.75 µM ([2]; Well no.=2883): 100%

Compound: CSC(=S)NCc1c[nH]c2ccccc12 [Brassinin]
- remaining activity at 1.25 µM ([1]; Well no.=3801): 101%
- remaining activity at 3.75 µM ([2]; Well no.=3801): 101%

Compound: C[C@H]1CCC/C=C/[C@@H]2C[C@H](O)C[C@H]2[C@H](O)/C=C/C(=O)O1 [Brefeldin A]
- remaining activity at 1.25 µM ([1]; Well no.=3093): 101%
- remaining activity at 3.75 µM ([2]; Well no.=3093): 100%

Compound: CC[N+](C)(C)Cc1ccccc1Br [Bretylium tosylate]
- remaining activity at 1.25 µM ([1]; Well no.=321): 103%
- remaining activity at 3.75 µM ([2]; Well no.=321): 101%

Compound: O=c1ccc2ccc(OCCCCN3CCN(c4cccc5sccc45)CC3)cc2[nH]1 [Brexpiprazole]
- remaining activity at 1.25 µM ([1]; Well no.=6473): 99.5%
- remaining activity at 3.75 µM ([2]; Well no.=6473): 98.1%

Compound: CCN[C@H]1CN(CCCOC)S(=O)(=O)c2sc(S(N)(=O)=O)cc21 [Brinzolamide]
- remaining activity at 1.25 µM ([1]; Well no.=5028): 105%
- remaining activity at 3.75 µM ([2]; Well no.=5028): 105%

Compound: Cc1cc2c(F)c(Oc3ncnn4cc(OC[C@@H](C)OC(=O)[C@H](C)N)c(C)c34)ccc2[nH]1 [Brivanib alaninate (BMS-582664)]
- remaining activity at 1.25 µM ([1]; Well no.=5049): 102%
- remaining activity at 3.75 µM ([2]; Well no.=5049): 104%

Compound: O=c1[nH]c(=O)n([C@H]2C[C@H](O)[C@@H](CO)O2)cc1/C=C/Br [Brivudine]
- remaining activity at 1.25 µM ([1]; Well no.=8845): 107%
- remaining activity at 3.75 µM ([2]; Well no.=8845): 98.3%

Compound: CN(Cc1cc(Br)cc(Br)c1N)C1CCCCC1 [Bromhexine]
- remaining activity at 1.25 µM ([1]; Well no.=2177): 98.4%
- remaining activity at 3.75 µM ([2]; Well no.=2177): 102%

Compound: C=CCc1ccccc1OCC(O)CNC1(C)CCC(C(C)(C)NC(=O)CBr)CC1 (stereo not shown) [Bromoacetyl alprenolol menthane]
- remaining activity at 1.25 µM ([1]; Well no.=275): 91.4%
- remaining activity at 3.75 µM ([2]; Well no.=275): 93.3%

Compound: C[N+](C)(C)CCOC(=O)CBr [Bromoacetylcholine bromide]
- remaining activity at 1.25 µM ([1]; Well no.=181): 102%
- remaining activity at 3.75 µM ([2]; Well no.=181): 98.9%
